Some test systems named below: HOP-62; RXF 393; EKVX; 786-0; MDA-MB-231; MOLT-4; UO-31; OVCAR-8; NCI-H23; HT-29; COLO 205; K562; RPMI-8226; NCI-H522; SN12C; M14; SF-295; CCRF-CEM; SK-MEL-28; SW-620.
Common to all, as to assay: inhibition of tumour cell growth, NCI panel, 48 h

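Method: 48-hour compound exposure of cells in 96-well plates, five concentrations, linear interpolation of endpoints. GI50 is the concentration that inhibits growth by half.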 Calls of active or inactive are those of the source. No stated cut-off is given here; in the data, active = GI50 up to about 1.1 µM and inactive = higher. Where only a bound is given, the exact number is not on record here.

With `CC(=O)c1c2c(cc3c1CC1(Cc4cc5c(cc4C1)CCCC5)C3)CCCC2`, the GI50 with HOP-62 was > 100 µM (inactive); with RXF 393, > 100 µM (inactive); in the experiment on EKVX, > 100 µM (inactive); in the experiment on 786-0, > 100 µM (inactive); in the experiment with MDA-MB-231, > 100 µM (inactive); in the experiment with MOLT-4, 12.1 µM (inactive). Further, the GI50 with UO-31 is 0.438 µM (active); in the experiment with OVCAR-8 it was > 100 µM (inactive); in the experiment with NCI-H23, 68.5 µM (inactive); in the experiment on HT-29, 50.9 µM (inactive); in the experiment with COLO 205, 77.1 µM (inactive); in the experiment on K562 it was 9.66 µM (inactive). Further, the GI50 is 11.8 µM (inactive) in the experiment with RPMI-8226; 20.9 µM (inactive) with NCI-H522; > 100 µM (inactive) with SN12C; > 100 µM (inactive) with M14; 37.2 µM (inactive) in the experiment with SF-295.

In the case of `C[C@]12CC[C@H](O)CC1=CC[C@@H]1C2CC[C@]2(C)Nc3c(cnn3-c3ccc(F)cc3)CC12` (some centres not stated), the GI50 in the experiment on CCRF-CEM is 2.94 µM (inactive); in the experiment with HOP-62, 10.8 µM (inactive); with RXF 393 it was 2.25 µM (inactive); in the experiment on EKVX it was 79.6 µM (inactive); in the experiment on SK-MEL-28 it was 3.49 µM (inactive); with 786-0 it was 3.09 µM (inactive). Besides, the GI50 in the experiment with MDA-MB-231 is > 41.8 µM (inactive); in the experiment on MOLT-4, 3.48 µM (inactive); in the experiment with UO-31, > 39.4 µM (inactive); in the experiment with OVCAR-8 it was 23.3 µM (inactive); in the experiment with NCI-H23 it was 26.5 µM (inactive); in the experiment on HT-29, 5.94 µM (inactive). Besides, the GI50 is 2.25 µM (inactive) with K562; 48.1 µM (inactive) in the experiment with NCI-H522; 37.4 µM (inactive) in the experiment on SN12C; > 100 µM (inactive) in the experiment on M14; 2.43 µM (inactive) in the experiment with SF-295.

As to `COc1cc2oc(-c3ccc4c(c3)OCO4)c(OC)c(=O)c2c(OC)c1OC`, the GI50 with CCRF-CEM is > 100 µM (inactive); with SW-620 it was > 100 µM (inactive); in the experiment with HOP-62, 27.4 µM (inactive); with RXF 393, 32.7 µM (inactive); in the experiment with EKVX, 66.5 µM (inactive); with SK-MEL-28, > 100 µM (inactive). In addition, the GI50 in the experiment on 786-0 was 94 µM (inactive); in the experiment with MDA-MB-231 it was > 100 µM (inactive); with MOLT-4 it was > 100 µM (inactive); in the experiment with UO-31, > 100 µM (inactive); with OVCAR-8 it was 53.3 µM (inactive); in the experiment with NCI-H23, 39.4 µM (inactive). Also, the GI50 in the experiment on HT-29, with COLO 205, in the experiment with K562, with NCI-H522, with SN12C and with M14 was > 100 µM (inactive) throughout. Moreover, in the experiment with SF-295, the GI50 is > 100 µM (inactive).

As for `CC(Cc1cccc2c1Nc1ccccc1S2)N(C)CCO` (configuration not stated), the GI50 in the experiment with CCRF-CEM, with SW-620, with HOP-62, in the experiment with RXF 393, in the experiment with EKVX and in the experiment with SK-MEL-28 was > 100 µM (inactive) in each case. In addition, the GI50 in the experiment with 786-0, in the experiment with MDA-MB-231, in the experiment on MOLT-4, in the experiment on UO-31, with OVCAR-8 and in the experiment on NCI-H23 was > 100 µM (inactive) in each case. The GI50 in the experiment with HT-29, in the experiment with COLO 205, with K562, in the experiment on NCI-H522, in the experiment on SN12C and in the experiment on M14 was > 100 µM (inactive) each time. Further, in the experiment with SF-295, the GI50 was > 100 µM (inactive).

For the origin of these results see ChEMBL document CHEMBL1201862, “PubChem BioAssay data set” (2004).
